In patent US20080255060A1, “Ester Linked Macrolides Useful For The Treatment of Microbial Infections” (priority 2004, published 2008):

Experiments:
Assay in all cases: MIC, standard microtiter broth serial dilution test
Format in all cases: cell-based
E. faecalis ATCC 0004 = details: Enterococcus faecalis, ATCC0004
[1] = tested on: erythromycin resistant strains of Streptococcus pyogenes
S. pyogenes 0542 = details: Streptococcus pyogenes
[2] = tested on: S. aureus Smith ATCC 0329; details: Staphylococcus aureus, ATCC0329
[3] = tested on: erythromycin resistant strains of Streptococcus pneumoniae
S. pneumoniae 0541 = details: Streptococcus pneumoniae
H. influenzae ATCC 0529 = details: Haemophilus influenzae, ATCC0529
M. catarrhalis ATCC 0324 = details: Moraxella catarrhalis, ATCC0324

MIC (E. faecalis ATCC 0004)	MIC [1]	MIC (S. pyogenes 0542)	MIC [2]	MIC [3]	MIC (S. pneumoniae 0541)	MIC (H. influenzae ATCC 0529)	MIC (M. catarrhalis ATCC 0324)	SMILES
≤ 1 µg/mL	≤ 0.25 µg/mL	≤ 1 µg/mL	≤ 1 µg/mL	≤ 0.25 µg/mL	≤ 1 µg/mL			CC[C@H]1OC(=O)[C@H](C)[C@@H](O[C@H]2C[C@@](C)(OC)[C@@H](OC(=O)CCOCCOCCNc3cc4c(=O)c(C(=O)O)cn(C5CC5)c4cc3Cl)[C@H](C)O2)[C@H](C)[C@@H](O[C@@H]2O[C@H](C)C[C@H](N(C)C)[C@H]2O)[C@](C)(O)C[C@@H](C)/C(=N\OCOCCOC)[C@H](C)[C@@H](O)[C@]1(C)O [Example 6, 4″-O-(3-{2-[2-(3-Carboxy-7-chloro-1-cyclopropyl-4-oxo-1,4-dihydro-quinolin-6-ylamino)-ethoxy]-ethoxy}-propionyl)-roxythromycin]
≤ 1 µg/mL	≤ 0.25 µg/mL	≤ 1 µg/mL	≤ 1 µg/mL	≤ 0.25 µg/mL	≤ 1 µg/mL	≤ 2 µg/mL	≤ 2 µg/mL	CC[C@H]1OC(=O)[C@H](C)[C@@H](O[C@H]2C[C@@](C)(OC)[C@@H](OC(=O)CCOCCOCCNc3cc4c(=O)c(C(=O)O)cn(C5CC5)c4cc3Cl)[C@H](C)O2)[C@H](C)[C@@H](O[C@@H]2O[C@H](C)C[C@H](N(C)C)[C@H]2O)[C@](C)(O)C[C@@H](C)CN(C)[C@H](C)[C@@H](O)[C@]1(C)O [Example 8, 4″-O-(3-{2-[2-(3-Carboxy-7-chloro-1-cyclopropyl-4-oxo-1,4-dihydro-quinolin-6-ylamino)-ethoxy]-ethoxy}-propionyl)-azithromycin]
≤ 1 µg/mL	≤ 0.25 µg/mL	≤ 1 µg/mL	≤ 1 µg/mL	≤ 0.25 µg/mL	≤ 1 µg/mL	≤ 2 µg/mL	≤ 2 µg/mL	CC[C@H]1OC(=O)[C@H](C)[C@@H](O[C@H]2C[C@@](C)(OC)[C@@H](OC(=O)CCOCCOCCNc3ccc4c(c3)c(=O)c(C(=O)O)cn4C3CC3)[C@H](C)O2)[C@H](C)[C@@H](O[C@@H]2O[C@H](C)C[C@H](N(C)C)[C@H]2O)[C@](C)(O)C[C@@H](C)CN(C)[C@H](C)[C@@H](O)[C@]1(C)O [Example 11, 4″-O-(3-{2-[2-(3-Carboxy-1-cyclopropyl-4-oxo-1,4-dihydro-quinolin-6-ylamino)-ethoxy]-ethoxy}-propionyl)-azithromycin]
≤ 1 µg/mL	≤ 0.25 µg/mL	≤ 1 µg/mL	≤ 1 µg/mL	≤ 0.25 µg/mL	≤ 1 µg/mL	≤ 2 µg/mL	≤ 2 µg/mL	CCO/N=C1\[C@H](C)C[C@@](C)(O)[C@H](O[C@@H]2O[C@H](C)C[C@H](N(C)C)[C@H]2O)[C@@H](C)[C@H](OC2C[C@@](C)(OC)[C@@H](OC(=O)CCOCCOCCNc3cc4c(=O)c(C(=O)O)cn(C5CC5)c4cc3Cl)[C@H](C)O2)[C@@H](C)C(=O)O[C@H](CC)[C@@](C)(O)[C@H](O)[C@H]1C (stereo partly drawn) [Example 19, 4″-O-(3-{2-[2-(3-Carboxy-7-chloro-1-cyclopropyl-4-oxo-1,4-dihydro-quinolin-6-ylamino)-ethoxy]-ethoxy}-propionyl)-9(E)-ethoxyimino-erythromycin A]
≤ 1 µg/mL	≤ 0.25 µg/mL	≤ 1 µg/mL	≤ 1 µg/mL	≤ 0.25 µg/mL	≤ 1 µg/mL	≤ 2 µg/mL	≤ 2 µg/mL	CC[C@H]1OC(=O)[C@H](C)[C@@H](O[C@H]2C[C@@](C)(OC)[C@@H](OC(=O)CCOCCOCCNc3ccc4c(c3)c(=O)c(C(=O)O)cn4CC)[C@H](C)O2)[C@H](C)[C@@H](O[C@@H]2O[C@H](C)C[C@H](N(C)C)[C@H]2O)[C@](C)(O)C[C@@H](C)CN(C)[C@H](C)[C@@H](O)[C@]1(C)O [Example 30, 4″-O-(3-{2-[2-(3-Carboxy-1-ethyl-4-oxo-1,4-dihydro-quinoline-6-ylamino)-ethoxy]-ethoxy}-propionyl)-azithromycin]
≤ 1 µg/mL	≤ 0.25 µg/mL	≤ 1 µg/mL	≤ 1 µg/mL	≤ 0.25 µg/mL	≤ 1 µg/mL	≤ 2 µg/mL	≤ 2 µg/mL	CC[C@H]1OC(=O)[C@H](C)[C@@H](O[C@H]2C[C@@](C)(OC)[C@@H](OC(=O)CCOCCOCCNc3cc4c(=O)c(C(=O)O)cn(C(C)C)c4cc3Cl)[C@H](C)O2)[C@H](C)[C@@H](O[C@@H]2O[C@H](C)C[C@H](N(C)C)[C@H]2O)[C@](C)(O)C[C@@H](C)CN(C)[C@H](C)[C@@H](O)[C@]1(C)O [Example 31, 4″-O-(3-{2-[2-(3-carboxy-7-chloro-1-isopropyl-4-oxo-1,4-dihydro-quinoline-6-ylamino)-ethoxy]-ethoxy}-propionyl)-azithromycin]
≤ 1 µg/mL	≤ 0.25 µg/mL	≤ 1 µg/mL	≤ 1 µg/mL	≤ 0.25 µg/mL	≤ 1 µg/mL	≤ 2 µg/mL	≤ 2 µg/mL	CC[C@H]1OC(=O)[C@H](C)[C@@H](OC2C[C@@](C)(OC)[C@@H](OC(=O)CCOCCOCCNc3cc4c5c(c3)c(=O)c(C(=O)O)cn5CCC4)[C@H](C)O2)[C@H](C)[C@@H](O[C@@H]2O[C@H](C)C[C@H](N(C)C)[C@H]2O)[C@](C)(O)C[C@@H](C)CN(C)[C@H](C)[C@@H](O)[C@]1(C)O (stereo partly drawn) [Example 32, 4″-O-(3-{2-[2-(6-Carboxy-7-oxo-2,3-dihydro-1H,7H-pyrido[3,2,1-ij]quinolin-9-ylamino)-ethoxy]-ethoxy}-propionyl)-azithromycin]
≤ 1 µg/mL	≤ 0.25 µg/mL	≤ 1 µg/mL	≤ 1 µg/mL	≤ 0.25 µg/mL	≤ 1 µg/mL	≤ 2 µg/mL	≤ 2 µg/mL	CC[C@H]1OC(=O)[C@H](C)[C@@H](O[C@H]2C[C@@](C)(OC)[C@@H](OC(=O)CCOCCOCCNc3cc4c5c(c3)c(=O)c(C(=O)O)cn5CCC4)[C@H](C)O2)[C@H](C)[C@@H](O[C@@H]2O[C@H](C)C[C@H](N(C)C)[C@H]2O)[C@](C)(OC)C[C@@H](C)C(=O)[C@H](C)[C@@H](O)[C@]1(C)O [Example 33, 4″-O-(3-{2-[2-(6-Carboxy-7-oxo-2,3-dihydro-1H,7H-pyrido[3,2,1-ij]quinolin-9-ylamino)-ethoxy]-ethoxy}-propionyl)-6-O-methyl-erythromycin A]
≤ 1 µg/mL	≤ 0.25 µg/mL	≤ 1 µg/mL	≤ 1 µg/mL	≤ 0.25 µg/mL	≤ 1 µg/mL	≤ 2 µg/mL	≤ 2 µg/mL	CC[C@H]1OC(=O)[C@H](C)[C@@H](OC2C[C@@](C)(OC)[C@@H](OC(=O)CCNCCOCCCc3ccc4c(c3)c(=O)c(C(=O)O)cn4CC)[C@H](C)O2)[C@H](C)[C@@H](OC2O[C@H](C)C[C@H](N(C)C)[C@H]2O)[C@](C)(OC)C[C@@H](C)C(=O)[C@H](C)[C@@H](O)[C@]1(C)O (stereo partly drawn) [Example 37, 4″-O-(3-{2-[3-(3-Carboxy-1-ethyl-4-oxo-1,4-dihydro-quinolin-6-yl)-propoxy]-ethylamino}-propionyl)-6-O-methyl-erythromycin A]
≤ 1 µg/mL	≤ 0.25 µg/mL	≤ 1 µg/mL	≤ 1 µg/mL	≤ 0.25 µg/mL	≤ 1 µg/mL	≤ 2 µg/mL	≤ 2 µg/mL	CC[C@H]1OC(=O)[C@H](C)[C@@H](O[C@H]2C[C@@](C)(OC)[C@@H](OC(=O)CCOCCOCCCc3ccc4c(c3)c(=O)c(C(=O)O)cn4CC)[C@H](C)O2)[C@H](C)[C@@H](OC2O[C@H](C)C[C@H](N(C)C)[C@H]2O)[C@](C)(O)C[C@@H](C)CN(C)[C@H](C)[C@@H](O)[C@]1(C)O (stereo partly drawn) [Example 49, 4″-O-(3-{2-[3-(3-carboxy-1-ethyl-4-oxo-1,4-dihydro-quinolin-6-yl)-propoxy]-ethoxy}-propionyl)-azithromycin]
	≤ 0.25 µg/mL			≤ 0.25 µg/mL				CCO/N=C1\[C@H](C)C[C@@](C)(O)[C@H](OC2O[C@H](C)C[C@H](N(C)C)[C@H]2O)[C@@H](C)[C@H](OC2C[C@@](C)(OC)[C@@H](OC(=O)CCOCCOCCCc3ccc4c(c3)c(=O)c(C(=O)O)cn4CC)[C@H](C)O2)[C@@H](C)C(=O)O[C@H](CC)[C@@](C)(O)[C@H](O)[C@H]1C (stereo partly drawn) [Example 52, 9-Ethyloximino-4″-O-(3-{2-[3-(3-carboxy-1-ethyl-4-oxo-1,4-dihydro-quinolin-6-yl)-propoxy]-ethoxy}-propionyl)-erythromycin A]
≤ 1 µg/mL	≤ 0.25 µg/mL	≤ 1 µg/mL	≤ 1 µg/mL	≤ 0.25 µg/mL	≤ 1 µg/mL	≤ 2 µg/mL	≤ 2 µg/mL	CC[C@H]1OC(=O)[C@H](C)[C@@H](O[C@H]2C[C@@](C)(OC)[C@@H](OC(=O)CCOCCOCCOc3cc4c(=O)c(C(=O)O)cn(C5CC5)c4cc3Cl)[C@H](C)O2)[C@H](C)[C@@H](O[C@@H]2O[C@H](C)C[C@H](N(C)C)[C@H]2O)[C@](C)(O)C[C@@H](C)CN(C)[C@H](C)[C@@H](O)[C@]1(C)O [Example 55, 4″-O-(3-{2-[2-(3-Carboxy-7-chloro-1-cyclopropyl-4-oxo-1,4-dihydro-quinolin-6-yloxy)-ethoxy]-ethoxy}-propionyl)-azithromycin]
≤ 1 µg/mL	≤ 0.25 µg/mL	≤ 1 µg/mL	≤ 1 µg/mL	≤ 0.25 µg/mL	≤ 1 µg/mL	≤ 2 µg/mL	≤ 2 µg/mL	CC[C@H]1OC(=O)[C@H](C)[C@@H](O[C@H]2C[C@@](C)(OC)[C@@H](OC(=O)CCNCCOCCOCCNc3cc4c(=O)c(C(=O)O)cn(C5CC5)c4cc3Cl)[C@H](C)O2)[C@H](C)[C@@H](O[C@@H]2O[C@H](C)C[C@H](N(C)C)[C@H]2O)[C@](C)(O)C[C@@H](C)CN(C)[C@H](C)[C@@H](O)[C@]1(C)O [Example 65, 4″-O-[3-(2-{2-[2-(3-Carboxy-7-chloro-1-cyclopropyl-4-oxo-1,4-dihydro-quinolin-6-ylamino)-ethoxy]-ethoxy}-ethylamino)-propionyl]-azithromycin]
